Test results published in patent US20040161757A1, “Use of acetyl-coa carboxylase for identifying compounds that have an insecticidal effect” (priority 2000, published 2004).

System: peach aphid Myzus persicae
Assay: Impairment of lipid neogenesis: 14C-acetate feeding by the sachet method, lipid extract separated by TLC
Assay type: in vivo
From the text: Peach aphid Myzus persicae larvae or adults were fed for two days with nutrient solutions with and without one of the identified ACCase inhibitors, using the sachet method (Nauen et al. 1996).
Thereafter, the animals were collected and homogenized in organic solvent using a pestle and mortar. The organic phase was cleansed of water-soluble constituents by repeatedly extracting it by shaking with aqueous solution, and the solvent was then evaporated. The pellet which remained was taken up in a little solvent and separated by thin-layer chromatography (TLC). The lipids which were separated were stained with amido black. ^14C-acetate which was incorporated into the lipids was detected by autoradiography after an exposure time of 2-3 days. To quantify the ^14C-incorporation into lipids, the bands in question were scraped out after staining, dissolved, and the activity was determined in a scintillation counter. […] Thus, no de novo lipid synthesis from acetate has taken place. […] It can be seen clearly that increasing inhibitor concentrations halt the de-novo lipid biosynthesis.
The mobile phase used for the TLC chromatography was n-hexane: diethyl ether: glacial acetic acid (60:45:1).

Structure (SMILES): COC1CCC2(CC1)NC(=O)C(c1c(C)cc(C)c(C)c1C)=C2O (centres unmarked) [I-A, 4-hydroxy-8-methoxy-3-(2,3,4,6-tetramethylphenyl)-1-azaspiro[4,5]dec-32-en-2-one]
- radiolabeled 14C-acetate incorporated into lipids during de-novo synthesis (autoradiograph of TLC plate) (fed for two days, exposure time 2-3 days, FIG. 1b, treated vs control aphids): no labeled lipids are present
- lipid composition and lipid content (lipid status after acetate feeding, TLC stained with amido black) (larvae or adults fed for two days with nutrient solution with vs without active ingredient, FIG. 1a lanes 4-6 vs 1-3): No significant differences
